Experimental data as given in US20030148498A1, “Microorganism overproducing 5'-xanthylic acid” (priority 2001, published 2003).

Key:
[1] = test system: Parent strain KFCC 10743; assay: Growth of parent strain in minimum medium with 3,4-dehydroproline; type: cell-based, Corynebacterium ammoniagenes; parameters: key to growth: +: growth; −: no growth; details: 5 days; for growth: 30° C.
Procedure: (§1) To be more specific, in this innovative research, we adopted Corynebacterium ammoniagenes KFCC 10743 as parent strain and treated it with UV radiation and mutation derivatives such as N-methyl-N′-nitro-N-nitrosoguanidine (NTG) according to ordinary procedure and, by adding 0 to 50 mg/L of proline analogue 3,4-dehydroproline (Sigma Company) in the minimum medium shown in the following Table 1, we developed growing mutant strains. From them, a strain which grows in 30 mg/L 3,4-dehydroproline was separated, named CJXPK001. And, it was deposited under the Budapest Treaty to the Korea Culture Center of Microorganisms on Dec. 7, 2001 with accession Number KCCM 10340.
(§2) Further, after adding 0 to 50 mg/L of 3,4-dehydroproline in the minimum medium shown in the above Table 1 according to concentration levels, the medium was fermented at 30° C. for 5 days. And the whole process was scrutinized to find the growth rates of the mutant strain CJXPK001 and the parent strain KFCC 10743.

[2] = test system: Mutant strain CJXPK001; assay: Growth of mutant strain in minimum medium with 3,4-dehydroproline; type: cell-based, Corynebacterium ammoniagenes; parameters: key: +: growth; −: no growth; details: 30° C., 5 days
Procedure: as §1, §2

[3] = parent strain KFCC 10743, 30° C.

SMILES: O=C(O)C1C=CCN1 (centres unmarked) [3,4-dehydroproline]
- growth ([1]; 3,4-dehydroproline 5 mg/L): +
- growth ([1]; 3,4-dehydroproline 10 mg/L): −
- growth ([1]; 3,4-dehydroproline 20 mg/L): −
- growth ([1]; 3,4-dehydroproline 30 mg/L): −
- growth ([1]; 3,4-dehydroproline 40 mg/L): −
- growth ([1]; 3,4-dehydroproline 50 mg/L): −
- 3,4-dehydroproline concentration at which the strain showed resistance [1, 3]: 5 mg/L
- 3,4-dehydroproline concentration level at which no growth was observed [1, 3]: above 10 mg/L
- growth ([2]; 3,4-dehydroproline 30 mg/L): +
- growth ([2]; 3,4-dehydroproline 40 mg/L): −
- growth ([2]; 3,4-dehydroproline 50 mg/L): −
